Patent US5814599A, “Transdermal delivery of encapsulated drugs” (Massachusetts Insitiute of Technology, priority 1995, dated 1998)
Where two headings read alike, the source gives them in different places.

Assays:
[1] = Transdermal glucose extraction by sonophoresis in vitro; format: in vitro ADME, human; details: for glucose concentration attained in the donor compartment: 10 minutes sonophoresis; for glucose concentration in the donor compartment as percent of that in the receiver compartment: 20 KHz, 125 mW/cm^2, continuous
Protocol: Transdermal transport of a ^14 C labeled (New England Nuclear) as well as non-labeled (Sigma Chemicals) was studied in the presence as well as in the absence of low-frequency ultrasound. The permeability experiments were performed in vitro using human cadaver skin obtained from local hospitals. […] The Franz diffusion cell consists of two compartments, the donor and the receiver compartments, with the stratum comeum facing the donor compartment. […] The donor and receiver compartments were then clamped. The receiver compartment was filled Phosphate Buffer Saline (PBS, phosphate concentration=0.01M, NaCl concentration=0.137M) (Sigma Chemicals Co.) The donor compartment was filled with a solution of either radiolabelled glucose (1 mCi/ml) or non-labeled glucose (concentration in the range of 50 mg/dL to 300 mg/dL) in separate experiments. The concentration of the permeant in the receiver compartment was measured every 5 minutes using a scintillation counter (model 2000 CA, Packard) in the case of radiolabelled glucose and using a commercially available kit (Sigma Chemicals) in the case of unlabeled glucose.
Ultrasound was applied using a sonicator (VCX 400, Sonics and Materials) operating at a frequency of 20 KHz. The ultrasound intensity was measured using a hydrophone (Model 8106, Bruel and Kjaer).
Additional experiments were performed to assess whether the amount of glucose transported by sonophoresis is proportional to the glucose concentration in the […]. In separate experiments, glucose concentration in the receiver solution was varied from 50 mg/dL to 350 mg/dL (typical variation in the blood glucose level of a diabetic patient) and performed sonophoresis using ultrasound (20 KHz, 125 mW/cm^2, continuous) for 10 minutes. […] The line shown in FIG. 3B represents the best fit.

hairless rats [2] = assay: Transdermal glucose extraction by sonophoresis in vivo; set-up: species or system rat; details: 20 KHz, 62.5, continuous, 1 minute
Protocol: In vivo experiments were performed to assess the efficacy of sonophoresis across living skin. […] The hairless rats were anesthetized with a mixture of ketamine (60 mg/kg) and xylazine (10 mg/kg). After about an hour in anesthesia, a flanged glass cylinder (Crown Glass Company, diameter 20 mm, height 2 cm) was glued on the rat's back using a minimal amount of superglue (Permabond International) or vacuum grease (Dow Chemicals) on the outer edge of the flange. The center of the cylinder was located about 3 cm from the rear end of the rat. This particular site was chosen to avoid application of ultrasound directly on a sharp bone close to the body surface, which otherwise might have caused damage to the blood capillaries near the edge of the bone. The cylinder was filled with PBS (phosphate concentration=0.01M, NaCl concentration=0.137M) (Sigma Chemicals Co.). […] The concentration of glucose in PBS was measured using an assay kit (Sigma Chemicals).

[3] = In vitro skin permeability to proteins in the presence of ultrasound (Franz diffusion cell); format: in vitro ADME, human
Protocol: To assess whether application of ultrasound enhances transdermal protein flux, the skin permeability to these proteins in the presence of ultrasound in vitro across human cadaver epidermis in a Franz Diffusion Cell (Crown Glass Company) was measured. […] The concentration of proteins in the receiver compartment was measured every hour either by RIA or ELISA. The insulin concentration in the receiver compartment was measured every hour by Radioimmuno Assay (performed at Linco Research Inc., St. Charles). The γ-interferon concentration was measured using ELISA methods developed by Endogen Inc, and the erythropoeitin concentration was measured by ELISA (performed at ARUP, Salt Lake City). Skin permeabilities to proteins were calculated using the transdermal fluxes measured during the first hour. The transdermal flux can be calculated using the equation, J=DM/.increment.t, where .increment.M is the amount of protein transported per unit skin area during time .increment.t. The skin permeabilities, P, can be calculated from the transdermal flux, J, during the first hour of ultrasound application using the equation, P=J/.increment.C, where .increment.C is the concentration difference across the skin.

[4] = Protocol: (§1) Materials and methods: In vivo as well as in vitro experiments were performed to study the effect of low-frequency ultrasound on the transport of insulin across the skin. In vitro experiments were performed using human cadaver skin. The skin was heat stripped by keeping it in water at 60° C. for two minutes followed by the removal of the epidermis. It was then stored at 4° C. in a humidified chamber. A piece of epidermis was taken out from the chamber prior to the experiments and was mounted on the Franz diffusion cell (Crown Bioscientific Co.) which consists of two compartments, the donor and the receiver compartment. […] The human cadaver epidermis (separated from the dermis by heat-treatment) is mounted between the two compartments and is supported by a Nylon mesh (Tetko Inc.) to avoid any damage. The skin was supported by a nylon mesh (Tetko Inc.) in order to a mimic the fact the skin in vivo is supported by mechanically strong dermis. The compartments were then clamped together. The receiver compartment was filled with 2%. BSA (Sigma Chemicals) solution in PBS (Sigma Chemicals) and the donor solution was filled with 100 U/ml solution of human recombinant insulin (Humulin Regular). The ultrasound intensity, I, (Spatial Average Temporal Peak) was calculated from the values of the acoustic pressure amplitude, P, measured using a hydrophone (Bruel and Kjaer) using the equation, I=P^2 /2.rho.c, where .rho. is the water density (1 gm/ml), and c is the velocity of ultrasound in water [1500 m/s].
[5] = remark: listed apart in the source
Protocol: as §1
Ultrasound was turned ON at a frequency of 20 KHz, an intensity varying in the range of 0 to 1 W/cm^2 and 10% duty cycle. Samples (200 μl) were taken from the receiver compartment every hour to measure the concentration of insulin in the receiver compartment. The samples were immediately frozen and were stored at -20° C. till they were analyzed by RIA (Linco Research Co.). Ultrasound was typically applied for 4 hours and was then turned OFF. Transdermal insulin flux was followed for next two hours.

hairless rats [6] = assay: In vivo insulin sonophoresis, blood glucose level of normal hairless rats; details: for amount of insulin delivered: 225 mW/cm^2, area 3 cm^2; for blood glucose level after ultrasound exposure: normal rats, from about 250 mg/dl
Protocol: Materials and Methods: In vivo experiments were performed using hairless rats (Charles River). The rats were kept in quarantine to insure good health. On the day of experiment, they were taken out of the cages, anesthetized using a mixture of ketamine (90 mg/kg) and xylazine (10 mg/kg). After about an hour into anesthesia, a glass chamber was glued to the back of the rat using superglue (Permeabond). The glass chamber was filled with 100 U/ml solution of insulin and ultrasound (frequency of 20 KHz, intensity in the range of 0 to 1 W/cm^2, 100 msec pulses applied every second) was applied. The blood glucose level was measured every 30 minutes. Ultrasound was typically turned OFF after 1 hour, although the measurements of the blood glucose were continued for the next three hours.
To estimate the amount of insulin penetrating the hairless rat skin during sonophoresis at the various intensities reported in FIG. 2A, various known amounts of insulin in the range of 0 to 1 U subcutaneously (most commonly used method of insulin administration today) in normal rats. The blood glucose levels of these rats were then compared with those of the normal rats undergoing sonophoresis.
In order to estimate the dependence of the amount of insulin delivered on ultrasound exposure time (in vivo), insulin-sonophoresis experiments (20 KHz, […], 100 msec pulses applied every second) were performed on normal rats for different exposure times in the range of 1 minute to 1 hour.

diabetic hairless rats = assay: In vivo insulin sonophoresis, blood glucose level of diabetic hairless rats; set-up: species or system rat; details: in 30 minutes, 20 KHz
Protocol: The blood glucose level was measured every 30 minutes.

[7] = diabetic hairless rats
[8] = within 2 hours after turning ultrasound OFF

Q: Which “glucose concentration attained in the donor compartment” value ([1]; receiver compartment 50 mg/dL) does the source give for `O=C[C@H](O)[C@@H](O)[C@H](O)[C@H](O)CO` [glucose] here?
A: 0.5 mg/dL

Q: What about the “glucose concentration attained in the donor compartment” value ([1]; receiver compartment 350 mg/dL) of the same molecule?
A: 6.5 mg/dL

Q: What about the “glucose concentration in the donor compartment as percent of that in the receiver compartment” value ([1]; after 5 minutes of sonophoresis) of the same molecule?
A: about 0.5%

Q: What about the “glucose concentration in the donor compartment as percent of that in the receiver compartment” value ([1]; after 10 minutes of sonophoresis) of the same molecule?
A: about 2%

Q: And the “glucose concentration in the reservoir after extraction” value (hairless rats [2]; rat blood glucose 450 mg/dL)?
A: 1 mg/dL

Q: And the “glucose concentration in the reservoir after extraction” value (hairless rats [2]; rat blood glucose about 200 mg/dL)?
A: 0.2 mg/dL

Q: Which results are given for erythropoeitin?
A: dose deliverable from a transdermal patch by sonophoresis [3]: about 140 U/h; human skin permeability [3]: 9.8×10^-6 (±40%) cm/h

Q: Which results are given for `O` [water]?
A: water permeability enhancement ([4]; during sonophoresis, 20 KHz, 125 mW/cm^2, 100 msec pulses every second): 100 fold; recovery of water permeability enhancement [4, 8]: about 94 (±3) %; recovery of water permeability enhancement ([4]; within 15 hours after turning ultrasound OFF): 98 (±1) %

Q: For insulin, which “transdermal insulin flux before ultrasound” value ([5]; before ultrasound turned ON) is on record?
A: below the detection limit

Q: What about the “insulin dose that could be delivered from a patch” value ([5]; flux 100 mU/cm^2 /hr, patch area 100 cm^2) of the same molecule?
A: about 13 U/h

Q: What about the “transdermal insulin flux after turning ultrasound OFF” value ([5]; three hours after turning ultrasound OFF) of the same molecule?
A: statistically insignificant

Q: What about the transdermal insulin flux ([5]; ultrasound 20 KHz, 125 mW/cm^2, 10%, reached in about 1 hour, almost constant while ultrasound ON, donor 100 U/ml) of the same molecule?
A: about 100 mU/cm^2 /hr

Q: And the “transdermal insulin permeability without ultrasound” value ([5]; ultrasound intensity = 0 (FIG. 1B))?
A: impermeable

Q: What about the “transdermal insulin flux after turning ultrasound OFF” value [5, 8] of the same molecule?
A: below our detection limit

Q: And the “dose deliverable from a transdermal patch by sonophoresis” value ([3]; patch area 40 cm^2, donor 100 U/ml insulin, 3×10^7 γ-interferon, 3×10^5 U/ml erythropoeitin)?
A: about 12 U/h

Q: And the human skin permeability ([3]; ultrasound 20 KHz, 225 mW/cm^2, 100 msec pulses every second, first hour)?
A: 3.3×10^-3 (±35%) cm/h

Q: And the “blood glucose level upon 1 hour insulin-ultrasound treatment” value (hairless rats [6]; 20 KHz, 100 msec pulses every second, intensities 0 to 225 mW/cm^2)?
A: intensity dependent decrease

Q: And the “amount of insulin delivered” value (hairless rats [6]; 10 minute ultrasound application)?
A: about 100 mU

Q: What about the “amount of insulin delivered” value (hairless rats [6]; 1 hour ultrasound exposure) of the same molecule?
A: about 1 U

Q: And the “blood glucose level after ultrasound exposure” value (hairless rats [6]; 10 minute exposure, 20 KHz)?
A: about 150 mg/dl

Q: And the “blood glucose level after ultrasound exposure” value (hairless rats [6]; 1 hour exposure, 20 KHz)?
A: about 30 mg/dl

Q: What about the “subcutaneous insulin dose inducing a similar decrease in blood glucose level” value (hairless rats [6]; sonophoresis 1 hour at 62.5 mW/cm^2) of the same molecule?
A: 100 mU

Q: What about the “subcutaneous insulin dose inducing a similar decrease in blood glucose level” value (hairless rats [6]; sonophoresis 1 hour at 225 mW/cm^2) of the same molecule?
A: 1 U

Q: What about the “blood glucose level after insulin-ultrasound treatment” value (diabetic hairless rats; diabetic hairless rats, from about 400 mg/dl, 225 mW/cm^2, 100 msec pulses every second) of the same molecule?
A: 200 mg/dL

Q: What about the “blood glucose level after insulin-ultrasound treatment” value (diabetic hairless rats; diabetic rat, from 400 mg/dl, 125 mW/cm^2, 100 msec pulses every second) of the same molecule?
A: 200 mg/dL

Q: And the “level of transdermally delivered human insulin in rat plasma” value ([7]; after 30 minutes of sonophoresis)?
A: 77 (±28) picomolar

Q: What about the “level of transdermally delivered human insulin in rat plasma” value ([7]; after 1 hour of sonophoresis) of the same molecule?
A: 178 (±84) picomolar

B1: γ-interferon (protein, UniProt P01579 24-161, looked up)
Interferon gamma: QDPYVKEAENLKKYFNAGHSDVADNGTLFLGILKNWKEESDRKIMQSQIVSFYFKLFKNFKDDQSIQKSVETIKEDMNVKFFNSNKKKRDDFEKLTNYSVTDLNVQRKAIHELIQVMAELSPAAKTGKRKRSQMLFRG
notes: γ-interferon (2500 U/ml, Genzyme Corp.), molecular weight 17,000 D
Q: With B1 as the molecule, how does the “dose deliverable from a transdermal patch by sonophoresis” value [3] read?
A: about 5×10^6 U/h

Q: What about the human skin permeability [3] of the same molecule?
A: 8×10^-4 (±22%) cm/h
